Counter-ions that a name gives are not always drawn.

One data set in a line: in vitro. Particulars: rat, gh3-tre-luc cells, AC50 (uM) modified / 1000.
As usually defined, the CC50 is the concentration at which the toxic effect on the cells reaches its halfway point. The low end stands for harm at low concentration, the high end for better tolerance by the cells. `N=C(N)c1ccccc1` [Benzenecarboximidamide, monohydrochloride] gave a CC50 at 24 h of over 90 µM.
The same measure, in the same setting: the figure for `O=S(=O)(O)c1ccccc1` [Benzenesulfonic acid] is over 90 µM; for `O=S(=O)(Cl)c1ccccc1` [Benzenesulfonyl chloride] it is over 90 µM.
As for `Sc1ccccc1` [Benzenethiol], the CC50 at 24 h was over 90 µM.
In turn, `O=C1CCC(c2ccccc2)(C2CCN(Cc3ccccc3)CC2)C(=O)N1` (centres unmarked) [Benzetimide] showed a cytotoxic concentration (CC50) at 24 h of over 50 µM.
For `c1ccc2[nH]cnc2c1` [Benzimidazole], the CC50 at 24 h is over 90 µM.
The same measure, in the same setting: the result for `CCc1oc2ccccc2c1C(=O)c1cc(I)c(O)c(I)c1` [Benziodarone] reads 24.8 µM.
The compound `O=C(Cn1ccnc1[N+](=O)[O-])NCc1ccccc1` [Benznidazole] displayed a CC50 at 24 h of over 50 µM.
The compound `c1ccc2c(c1)cc1ccc3cccc4ccc2c1c34` [Benzo(a)pyrene] yielded a CC50 at 24 h of over 90 µM.
`c1ccc2c(c1)-c1cccc3c1c-2cc1ccccc13` [Benzo(b)fluoranthene] gave a CC50 at 24 h of over 90 µM.
Consider `c1ccc2c(c1)c1cccc3ccc4cccc2c4c31` [Benzo(e)pyrene], for which the CC50 at 24 h was over 90 µM.
Compound `c1ccc2c(c1)ccc1ncccc12` [Benzo(f)quinoline] showed a CC50 at 24 h of over 90 µM.
In the case of `c1cc2ccc3ccc4ccc5cccc6c(c1)c2c3c4c56` [Benzo(g,h,i)perylene], the CC50 at 24 h is over 4 µM.
Regarding `CCC1(c2ccccc2)C(=O)NC(=O)N(C(=O)c2ccccc2)C1=O` (centres unmarked) [Benzobarbital], the CC50 at 24 h was over 50 µM.
Turning to `O=C(OC(=O)c1ccccc1)c1ccccc1` [Benzoic anhydride], the CC50 at 24 h is over 90 µM.
For `CC(=O)OC(C(=O)c1ccccc1)c1ccccc1` (centres unmarked) [Benzoin acetate], the CC50 at 24 h is over 90 µM.
With `O=C(c1ccccc1)C(O)c1ccccc1` (centres unmarked) [Benzoin], the CC50 at 24 h is over 90 µM.
Take `CCCCNc1ccc(C(=O)OCCOCCOCCOCCOCCOCCOCCOCCOCCOC)cc1` [Benzonatate]: the CC50 at 24 h was over 20 µM.
Compound `N#Cc1ccccc1` [Benzonitrile] displayed a CC50 at 24 h of over 90 µM.
In the case of `O=C(c1ccccc1)c1ccccc1` [Benzophenone], the CC50 at 24 h is over 50 µM.
The same measure, in the same setting: the result for `O=C(c1ccc2c(c1)C(=O)OC2=O)c1ccc2c(c1)C(=O)OC2=O` [Benzophenonetetracarboxylic dianhydride] reads over 90 µM.
`c1ccc2scnc2c1` [Benzothiazole] registered a CC50 at 24 h of over 90 µM.
In turn, `ClC(Cl)(Cl)c1ccccc1` [Benzotrichloride] returned a CC50 at 24 h of over 90 µM.
Consider `O=C(Oc1cccc2cccnc12)c1ccccc1` [Benzoxiquine], for which the CC50 at 24 h came out at 12 µM.
The compound `O=C(Cl)c1ccccc1` [Benzoyl chloride] yielded a CC50 at 24 h of over 90 µM.
Take `NNC(=O)c1ccccc1` [Benzoyl hydrazine]: the CC50 at 24 h is over 90 µM.
For the compound `O=C(OOC(=O)c1ccccc1)c1ccccc1` [Benzoyl peroxide], the CC50 at 24 h was over 50 µM.
Consider `O=C(Nc1ccc(C(=O)O)c(O)c1)c1ccccc1` [Benzoylpas], for which the CC50 at 24 h was over 50 µM.
The compound `NS(=O)(=O)c1cc2c(cc1Cl)N=C(CSCc1ccccc1)NS2(=O)=O` [Benzthiazide] registered a CC50 at 24 h of over 20 µM.
Compound `CN1[C@@H]2CC[C@H]1CC(OC(c1ccccc1)c1ccccc1)C2` (some centres unmarked) [Benztropine methylsulfonate] displayed a half-maximal cytotoxic concentration (CC50) at 24 h of 20.1 µM.
On to `CN(C)CCCOc1nn(Cc2ccccc2)c2ccccc12` [Benzydamine hydrochloride], for which the 50% cytotoxic concentration (CC50) at 24 h is 6.35 µM.
`CC(C)CC(=O)OCc1ccccc1` [Benzyl 3-methylbutanoate] returned a CC50 at 24 h of over 90 µM.
The same measure, in the same setting: the result for `CC(C)CCOCc1ccccc1` [Benzyl 3-methylbutyl ether] reads over 90 µM.
`CC(=O)OCc1ccccc1` [Benzyl acetate] came in with a CC50 at 24 h of over 90 µM.
Take `OCc1ccccc1` [Benzyl alcohol]: the cytotoxic concentration (CC50) at 24 h was over 90 µM.
Same read-out and setting: the result for `O=C(OCc1ccccc1)c1ccccc1` [Benzyl benzoate] reads over 90 µM; that for `O=C(CBr)OCc1ccccc1` [Benzyl bromoacetate], over 90 µM; that for `CCCCOC(=O)c1ccccc1C(=O)OCc1ccccc1` [Benzyl butyl phthalate], over 90 µM.
With `CCCC(=O)OCc1ccccc1` [Benzyl butyrate], the CC50 at 24 h was over 90 µM.
In the case of `O=C(/C=C/c1ccccc1)OCc1ccccc1` [Benzyl cinnamate], the CC50 at 24 h is over 90 µM.
In the case of `N#CCc1ccccc1` [Benzyl cyanide], the CC50 at 24 h was over 90 µM.
On the same count and under the same terms, the figure for `S=C=NCc1ccccc1` [Benzyl isothiocyanate] is over 90 µM; for `C=C(C)C(=O)OCc1ccccc1` [Benzyl methacrylate] it is over 90 µM; for `O=C(OCc1ccccc1)c1cccnc1` [Benzyl nicotinate] it is over 50 µM.
On the same count and under the same terms, the result for `CCC(=O)OCc1ccccc1` [Benzyl propanoate] reads over 90 µM.
Regarding `O=C(OCc1ccccc1)c1ccccc1O` [Benzyl salicylate], the CC50 at 24 h is over 90 µM.
Compound `c1ccc(CSCc2ccccc2)cc1` [Benzyl sulfide] returned a CC50 at 24 h of over 90 µM.
Compound `C/C=C(\C)C(=O)OCc1ccccc1` [Benzyl tiglate] gave a CC50 at 24 h of over 90 µM.
For `CC(=O)CCc1ccccc1` [Benzylacetone], the CC50 at 24 h is over 90 µM.
Consider `NCc1ccccc1` [Benzylamine], for which the CC50 at 24 h is over 90 µM.
`CCCCCCCCCCCC[N+](C)(C)Cc1ccccc1` [Benzyldimethyldodecylammonium chloride] returned a CC50 at 24 h of 10.6 µM.
`CCCCCCCCCCCCCC[N+](C)(C)Cc1ccccc1` [Benzyldimethyltetradecylammonium chloride dihydrate] yielded a CC50 at 24 h of 10.5 µM.
As to `NS(=O)(=O)c1cc2c(cc1Cl)NC(Cc1ccccc1)NS2(=O)=O` (centres unmarked) [Benzylhydrochlorothiazide], the CC50 at 24 h was over 50 µM.
In the case of `O=C(OCc1ccccc1)c1ccc(O)cc1` [Benzylparaben], the CC50 at 24 h was over 90 µM.
In turn, `C[N+](C)(C)Cc1ccccc1` [Benzyltrimethylammonium chloride] returned a CC50 at 24 h of over 90 µM.
As for `CC(C)COCC(CN(Cc1ccccc1)c1ccccc1)N1CCCC1` (centres unmarked) [Bepridil], the CC50 at 24 h was 9.16 µM.
With `COc1ccc2cc3[n+](cc2c1OC)CCc1cc2c(cc1-3)OCO2` [Berberine chloride], it took 88.5 µM to reach half-maximal cytotoxicity (CC50 at 24 h). This CC50 at 24 h lies about 9.7-fold higher than the previous one.
For the compound `COc1c(O)cc2c(c1O)[C@@H]1O[C@H](CO)[C@@H](O)[C@H](O)[C@H]1OC2=O` [Bergenin monohydrate], the CC50 at 24 h was over 20 µM.
Take `O=c1[nH]c2ccc([S+]([O-])CCN3CCC(Cc4ccc(F)cc4)CC3)cc2o1` (centres unmarked) [Besonprodil]: the CC50 at 24 h was over 90 µM.
The same measure, in the same setting: the figure for `CNCCc1ccccn1` [Betahistine mesylate] is over 20 µM; for `C[N+](C)(C)CC(=O)O` [Betaine monohydrate] it is over 90 µM; for `CCCC(=O)O[C@]1(C(=O)COC(=O)CC)[C@@H](C)C[C@H]2[C@@H]3CCC4=CC(=O)C=C[C@]4(C)[C@@]3(F)[C@@H](O)C[C@@]21C` [Betamethasone butyrate propionate] it is over 50 µM.
On to `CCC(=O)OCC(=O)[C@@]1(OC(=O)CC)[C@@H](C)C[C@H]2[C@@H]3CCC4=CC(=O)C=C[C@]4(C)[C@@]3(F)[C@@H](O)C[C@@]21C` [Betamethasone dipropionate], for which the CC50 at 24 h is over 50 µM.
`CCCCC(=O)O[C@]1(C(=O)CO)[C@@H](C)C[C@H]2[C@@H]3CCC4=CC(=O)C=C[C@]4(C)[C@@]3(F)[C@@H](O)C[C@@]21C` [Betamethasone valerate] had a CC50 at 24 h of 77.9 µM.
For the compound `C[C@H]1C[C@H]2[C@@H]3CCC4=CC(=O)C=C[C@]4(C)[C@@]3(F)[C@@H](O)C[C@]2(C)[C@@]1(O)C(=O)CO` [Betamethasone], the CC50 at 24 h is over 90 µM.
`O=C(O)CCNC(=O)c1ccccc1` [Betamipron] displayed a CC50 at 24 h of over 50 µM.
`CC(C)NCC(O)COc1ccc(CCOCC2CC2)cc1` (centres unmarked) [Betaxolol]: the CC50 at 24 h was over 50 µM.

Still in this data set, the particulars now being: rat, gh3-tre-luc cells, AC50 (uM) modified / 1000, Tox21_110001=Tox21_112607; viability, 1 nM T3 present, 24 h.
As for `CN1[C@H]2CC[C@@H]1[C@@H](C(=O)O)[C@@H](OC(=O)c1ccccc1)C2` [Benzoylecgonine], the CC50 at 24 h is over 50 µM.

Still in this data set, the particulars now being: rat, gh3-tre-luc cells, AC50 (uM) modified / 1000, Tox21_110001=Tox21_112620; viability, 1 nM T3 present, 24 h.
In turn, `CCC(=O)O[C@]1(c2ccccc2)CCN(C)C[C@H]1C` [Betaprodine] had a CC50 at 24 h of over 50 µM.

Still in this data set, the particulars now being: rat, gh3-tre-luc cells, AC50 (uM) modified / 1000, Tox21_110001=Tox21_112853; viability, 1 nM T3 present, 24 h.
`CN1[C@H]2CC[C@@H]1[C@@H](C(=O)O)[C@@H](OC(=O)c1ccccc1)C2` [Benzoylecgonine] gave a CC50 at 24 h of over 100 µM.

Staying with this data set, now noted: rat, gh3-tre-luc cells, AC50 (uM) modified / 1000, Tox21_110001=Tox21_200015; viability, 1 nM T3 present, 24 h.
In turn, `N#CSCc1ccccc1` [Benzyl thiocyanate] gave a CC50 at 24 h of over 90 µM.

The same data set, now with this note: rat, gh3-tre-luc cells, AC50 (uM) modified / 1000, Tox21_110001=Tox21_200129; viability, 1 nM T3 present, 24 h.
`SCc1ccccc1` [Benzenemethanethiol] displayed a CC50 at 24 h of over 90 µM.

The data set is the same for the next values; noted with them: rat, gh3-tre-luc cells, AC50 (uM) modified / 1000, Tox21_110001=Tox21_200489; viability, 1 nM T3 present, 24 h.
`NNCc1ccccc1` [Benzylhydrazine dihydrochloride] came in with a CC50 at 24 h of over 90 µM.

The data set is the same for the next values; noted with them: rat, gh3-tre-luc cells, AC50 (uM) modified / 1000, Tox21_110001=Tox21_200685; viability, 1 nM T3 present, 24 h.
For the compound `O=C(Cc1ccccc1)OCc1ccccc1` [Benzyl phenylacetate], the CC50 at 24 h was over 90 µM.

Still in this data set, the particulars now being: rat, gh3-tre-luc cells, AC50 (uM) modified / 1000, Tox21_110001=Tox21_200721; viability, 1 nM T3 present, 24 h.
`c1ccc2cc3c(cc2c1)-c1cccc2cccc-3c12` [Benzo(k)fluoranthene] came in with a CC50 at 24 h of over 90 µM.

The data set is the same for the next values; noted with them: rat, gh3-tre-luc cells, AC50 (uM) modified / 1000, Tox21_110001=Tox21_202359; viability, 1 nM T3 present, 24 h.
As for `Nc1ccc(-c2ccc(N)cc2)cc1` [Benzidine], the CC50 at 24 h is over 90 µM.

The data set is the same for the next values; noted with them: rat, gh3-tre-luc cells, AC50 (uM) modified / 1000, Tox21_110001=Tox21_202584; viability, 1 nM T3 present, 24 h.
The compound `Nc1ccc(-c2ccc(N)cc2)cc1` [Benzidine dihydrochloride] had a CC50 at 24 h of over 50 µM.

For the origin of these results see publication PMC6792352, “Limited Chemical Structural Diversity Found to Modulate Thyroid Hormone Receptor in the Tox21 Chemical Library” (Environmental Health Perspectives, 2019).
